{"source": "paper PMC3944805", "about": "“Reinterpreting the Mechanism of Inhibition of Mycobacterium tuberculosisD-Alanine:D-Alanine Ligase by D-Cycloserine” (Biochemistry, 2013)", "key": {"C[C@@H](N)C(=O)O": {"system": "C[C@@H](N)C(=O)O", "experiment": "purified protein, by the assay type", "conditions": "other: EcDdlB; pH 7.3; 37.0 °C", "quoted_text": "(§3) Time courses for the measurement of slow-onset inhibition were collected on an SX20 stopped-flow spectrometer (Applied Photophysics) at 37 °C, using a 10 mm path-length cell. Data points were recorded every 0.1 s. Catalysis was detected by the same coupled enzyme mechanism as used previously for steady-state kinetic measurements.[4] All reaction mixtures contained 50 mM HEPES (pH 7.3), 10 mM MgCl2, 80 mM KCl, 3 mM ATP, 0.25 mM NADH, 1.5 mM PEP, and a 40 μL/mL pyruvate kinase/lactate dehydrogenase enzyme solution (PK-LDH; stock solution of 600–1000 units/mL PK and 900–1400 units/mL LDH). MtDdl was employed at concentrations from 60 to 290 nM and EcDdl at a final concentration of 30 nM. DCS and D-Ala concentrations were varied as required. Reaction components were sorted into two syringes, with rapid mixing of 60 μL from each starting each reaction. For all assays, both syringes contained HEPES, MgCl2, KCl, NADH, PEP, and PK-LDH. MtDdl and D-Ala were always stored in separate syringes. For analysis of slow-onset inhibition at the C-terminal D-Ala binding site (i.e., data for Figure 1), DCS and Mt/EcDdl were stored in separate reaction mixtures prior to the commencement of the reaction. […]"}, "[1]": {"target": "T1, Escherichia coli DdlB (EcDdl) (Escherichia coli, UniProt P07862)", "experiment": "Slow-onset inhibition of EcDdl by stopped-flow coupled enzyme time courses", "type": "biochemical", "parameters": "hexahistidine tag (from pET28a+) (N); made in house; host or cells: E. coli BL21", "experimental": "(§1) Steady-state kinetics and equilibrium binding were performed as previously described.[4] Time courses for the measurement of slow-onset inhibition were collected on an SX20 stopped-flow spectrometer (Applied Photophysics) at 37 °C, using a 10 mm path-length cell. Data points were recorded every 0.1 s. Catalysis was detected by the same coupled enzyme mechanism as used previously for steady-state kinetic measurements.[4] All reaction mixtures contained 50 mM HEPES (pH 7.3), 10 mM MgCl2, 80 mM KCl, 3 mM ATP, 0.25 mM NADH, 1.5 mM PEP, and a 40 μL/mL pyruvate kinase/lactate dehydrogenase enzyme solution (PK-LDH; stock solution of 600–1000 units/mL PK and 900–1400 units/mL LDH). MtDdl was employed at concentrations from 60 to 290 nM and EcDdl at a final concentration of 30 nM. DCS and D-Ala concentrations were varied as required. Reaction components were sorted into two syringes, with rapid mixing of 60 μL from each starting each reaction. For all assays, both syringes contained HEPES, MgCl2, KCl, NADH, PEP, and PK-LDH. MtDdl and D-Ala were always stored in separate syringes. For analysis of slow-onset inhibition at the C-terminal D-Ala binding site (i.e., data for Figure 1), DCS and Mt/EcDdl were stored in separate reaction mixtures prior to the commencement of the reaction. For analysis of slow-onset inhibition at the N-terminal D-Ala site (i.e., data for Figure 2), MtDdl and DCS (with or without ATP) were stored in the same reaction mixture (for at least 4 min) prior to the commencement of the reaction.\n(§2) Individual time course data were fit using eq 1 [drawing 1] 1 where [P]t is the product formed at time t, [E] is the total MtDdl concentration, vi is the initial rate, vf is the final (steady-state) rate, and kobs is the apparent rate constant for approach to the steady state.[7] Time courses were performed in triplicate and kobs values averaged for each DCS and D-Ala concentration tested. Secondary replots of kobs versus DCS concentration were fit using eq 2 [drawing 2] 2 where [I] is the DCS concentration, [S] is the D-Ala concentration, and k2 and k–2 are rate constants as described in Scheme 2. The Km value was that for the C-terminal site (4 mM), as previously reported.[4]"}, "MtDdl": {"system": "MtDdl", "experiment": "Theoretical calculation of dissociative t1/2 for MtDdl:ATP:D-Ala1:D-Ala2 complex", "parameters": "species or system Mycobacterium tuberculosis", "conditions": "theoretical calculations", "from_the_text": "Supporting Information to:\nReinterpreting the mechanism of inhibition of Mycobacterium tuberculosis D-Alanine:D-Alanine ligase by D-Cycloserine.\nGareth Prosser and Luiz Pedro S. de Carvalho.\nDivision of Mycobacterial Research, MRC National Institute for Medical Research, The Ridgeway, […]\nTable S1. Steady-state kinetic parameters for MtDdl and EcDdl. […]\naReaction conditions for both enzymes were as previously reported.1 bValues for MtDdl taken from our previous work.1 cValues in parentheses are previously published values.2\nTheoretical calculation of dissociative t1/2 for MtDdl:ATP:D-Ala1:D-Ala2 complex […]\nk = diffusion-rate limited = 1 × 1010 M-1.s-1\nFigure S1. Comparison of dissociative half-lives (t1/2) of MtDdl:ATP:D-Ala:DCS and MtDdl:ATP:D-Ala-D-Ala complexes. Half-life for DCS-containing complex was measured experimentally as described in the main paper. Half-life for D-Ala-only-containing complex was calculated theoretically as described […]\n(1 picture or pasted object on this page, not shown here)"}, "[2]": {"target": "T1, Escherichia coli DdlB (EcDdl)", "experiment": "Steady-state kinetics of EcDdl", "quoted_text": "as §3"}, "[3]": {"target": "T1, Escherichia coli DdlB (EcDdl)", "parameters": "hexahistidine tag (from pET28a+) (N); made in house; host or cells: E. coli BL21; method as in Zawadzke et al., 1991", "conditions": "EcDdlB, previously published value in parentheses, ref Zawadzke et al., 1991, cited from earlier work"}, "[4]": {"target": "T2, Mycobacterium tuberculosis Ddl (MtDdl) (Mycobacterium tuberculosis, UniProt P9WP31)", "T2 construct": "hexahistidine tag; made in house", "T2 sequence (P9WP31 whole entry)": "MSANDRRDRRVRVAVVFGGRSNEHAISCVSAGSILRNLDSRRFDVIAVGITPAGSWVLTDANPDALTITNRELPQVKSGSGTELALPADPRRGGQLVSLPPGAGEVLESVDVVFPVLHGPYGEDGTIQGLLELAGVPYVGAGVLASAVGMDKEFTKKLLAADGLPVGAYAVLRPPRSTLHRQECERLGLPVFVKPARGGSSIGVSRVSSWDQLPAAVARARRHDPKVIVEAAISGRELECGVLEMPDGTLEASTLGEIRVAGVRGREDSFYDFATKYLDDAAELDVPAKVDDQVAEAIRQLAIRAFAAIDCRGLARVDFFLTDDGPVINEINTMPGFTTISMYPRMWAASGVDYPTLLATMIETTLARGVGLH", "experiment": "Slow-onset inhibition of MtDdl by stopped-flow coupled enzyme time courses", "type": "biochemical", "conditions": "for koff: read-out: k–2 (DCS dissociation rate constant)", "experimental": "as §1, §2"}, "[5]": {"target": "T2, Mycobacterium tuberculosis Ddl (MtDdl)", "conditions": "cited from earlier work"}, "[6]": {"conditions": "EcDdl preincubated with ATP, only 0.75 mM D-Ala tested"}, "[7]": {"conditions": "MtDdl preincubated with ATP with DCS, MtDdl–ATP complex, 40 mM D-Ala, 3 mM ATP"}, "[8]": {"conditions": "MtDdl preincubated with ATP, C-terminal D-Ala site, averaged over 0.4 to 40 mM D-Ala, 37 °C, pH 7.3"}}, "note": "Read-outs that look alike come from different tables or passages of the source."}
{"compound": "Escherichia coli DdlB (EcDdl) (Escherichia coli K-12)", "values": [{"measurement": "Km", "setting": "C[C@@H](N)C(=O)O", "result": "0.8 ± 0.07", "unit": "mM"}]}
{"compound": "N[C@@H]1CONC1=O", "note": "[DCS, (R)-4-amino-1,2-oxazolidin-3-one]", "values": [{"measurement": "fold faster rate of association of the enzyme–inhibitor complex (k2), EcDdl vs MtDdl", "setting": "[1]; EcDdl compared with MtDdl", "result": "> 3", "unit": "fold"}, {"measurement": "fold faster rate of dissociation of the enzyme–inhibitor complex (k–2), EcDdl vs MtDdl", "setting": "[1]; EcDdl compared with MtDdl", "result": 10, "unit": "fold"}, {"measurement": "k2 (DCS binding rate constant)", "setting": "[1]; [6]", "result": "2970 ± 360", "unit": "M^–1 s^–1"}, {"measurement": "t1/2 (dissociative half-life)", "setting": "[1]; [6]", "result": 5, "unit": "s"}, {"measurement": "koff", "setting": "[1]; EcDdl preincubated with ATP, only 0.75 mM D-Ala tested, read-out: k–2 (DCS dissociation rate constant)", "result": "0.13 ± 0.03", "unit": "s⁻¹"}, {"measurement": "DCS–MtDdl complex residence time longer than that for the D-Ala–MtDdl complex", "setting": "MtDdl", "result": "up to 8 orders of magnitude"}, {"measurement": "Ki", "setting": "[2]", "result": "44 ± 10", "unit": "µM"}, {"measurement": "Ki", "setting": "[3]; read-out: Ki,DCS2", "result": 27, "unit": "µM"}, {"measurement": "stability by one-dimensional NMR", "setting": "across all pHs tested over the time frame of the experiment", "result": "stable"}, {"measurement": "stability by one-dimensional and 13C HSQC NMR", "setting": "in the presence and absence of enzyme (and other buffer components)", "result": "no spectral changes"}, {"measurement": "t1/2 (dissociative half-life)", "setting": "[4]; MtDdl preincubated with ATP with DCS, MtDdl–ATP complex", "result": 25, "unit": "s"}, {"measurement": "k2 (DCS binding rate constant)", "setting": "[4]; [7]", "result": "373 ± 11", "unit": "M^–1 s^–1"}, {"measurement": "koff", "setting": "[4]; [7]", "result": "0.028 ± 0.001", "unit": "s⁻¹"}, {"measurement": "k2 (DCS binding rate constant)", "setting": "[4]; [8]", "result": "888 ± 36", "unit": "M^–1 s^–1"}, {"measurement": "koff", "setting": "[4]; [8]", "result": "0.014 ± 0.003", "unit": "s⁻¹"}, {"measurement": "t1/2 (dissociative half-life)", "setting": "[4]; MtDdl preincubated with ATP, MtDdl:ATP:D-Ala:DCS complex", "result": 48, "unit": "s"}, {"measurement": "Ki", "setting": "[5]; MtDdl–ATP–D-Ala complex, previous work, read-out: Ki,DCS2", "result": 25, "unit": "µM"}, {"measurement": "Ki", "setting": "[5]; previous data, read-out: Ki,DCS1", "result": 15, "unit": "µM"}]}
{"compound": "C[C@@H](N)C(=O)O", "note": "[D-Ala, D-alanine]", "values": [{"measurement": "Km", "setting": "[3]; read-out: Km,D-Ala2", "result": 1.2, "unit": "mM"}, {"measurement": "Km", "setting": "[5]; read-out: Km for the C-terminal site, value used in eq 2", "result": 4, "unit": "mM"}, {"measurement": "Km", "setting": "[5]; read-out: Km,D-Ala2, C-terminal site, previous work, ref Prosser and de Carvalho, 2013", "result": "3.6 ± 0.6", "unit": "mM"}]}
